Experiments:
F508del-CFTR protein = F508del-CFTR protein (Homo sapiens, UniProt P13569, DEL508-508); assay: CFTR processing and trafficking to the cell surface (Example 15); format: cell-based
[1] = Rat pharmacokinetics, single IV and oral dose; format: in vivo; details: male Sprague Dawley rats
Method: Compound 1 was also administered to male Sprague Dawley rats at single nominal oral dose (PO) of 3 mg/kg as a solution in 5% NMP, 30% PEG400, 10% TPGS, 5% PVP-K30 at 5 mL/kg dose volume.
The study design, sample tracking, data run design and individual plasma sample concentrations were stored using Watson LIMS software, Version 7.4.2 (Thermo Scientific Inc, Waltham, Mass.). Plasma concentration-time profiles of Compound 1 in Sprague Dawley rats at scheduled (nominal) sampling times were analyzed by noncompartmental pharmacokinetic methods using PK function within Watson LIMS software, Version 7.4.2 (Thermo Scientific Inc, Waltham, Mass.). Key pharmacokinetic parameters such as “area under the curve” (AUC), from the time of drug administration, time zero, extrapolated to infinity, clearance (CL), and Percent of oral bioavailability (% F) were determined. The AUC values were calculated using the linear trapezoidal rule.
In Table 21 below, Compound I is shown to have advantageous rat oral exposure (AUC) and oral bioavailability.

CFTR = CFTR (Homo sapiens, UniProt P13569); details: disclosed in PCT Application No. PCT/US2017/065425; read-out: EC50 as CFTR modulator; cited from earlier work
[2] = target: T1, F508del CFTR in NIH3T3 cells (Homo sapiens, UniProt P13569, DEL508-508); assay: Membrane potential optical assay (correction assay) for F508del-CFTR modulators; format: cell-based; details: NIH3T3 cells expressing F508del
T1 construct: expressed in transfected cells
Text: Membrane Potential Optical Methods for Assaying Properties of F508del-CFTR Modulators
An optical assay was employed to measure changes in membrane potential to determine the CFTR modulator properties of compounds. The assay utilized fluorescent voltage sensing dyes to measure changes in membrane potential using a fluorescent plate reader (e.g., FLIPR III, Molecular Devices, Inc.) as a readout for increase in functional F508del in NIH 3T3 cells. The driving force for the response was the creation of a chloride ion gradient in conjunction with channel activation and concurrent with compound treatment by a single liquid addition step after the cells had previously been loaded with a voltage sensing dye.
NIH3T3 mouse fibroblasts stably expressing F508del were used for optical measurements of membrane potential. The cells were maintained at 37° C. in 5% CO2 and 90% humidity in Dulbecco's modified Eagle's medium supplemented with 2 mM glutamine, 10% fetal bovine serum, 1×NEAA, β-ME, 1×pen/strep, and 25 mM HEPES in 175 cm^2 culture flasks. […] The cells were then activated and treated with Compound I. After 18-24 hours, fluorescence from the voltage sensing dye in the cells was measured to assess changes in the membrane potential as a read out for increase in functional F508del CFTR in the NIH3T3 cells.

[3] = target: T2, F508del-CFTR in human bronchial epithelial (HBE) cells (Homo sapiens, UniProt P13569, DEL508-508); assay: Ussing chamber assay, chloride current in airway epithelial (HBE) cells expressing F508del; format: cell-based
T2 construct: endogenous in cells; host or cells: primary CF human bronchial epithelial (HBE) cells
Method: Ussing chamber experiments were performed on polarized airway epithelial cells expressing F508del to further characterize the F508del modulators identified in the optical assay above. Non-CF and CF airway epithelia were isolated from bronchial tissue, cultured using methods well known in the art, and plated onto Costar® Snapwell™ filters that were precoated with NIH3T3-conditioned media. After four days the apical media was removed and the cells were grown at an air liquid interface for >14 days prior to use. […] CF-HBE cells were isolated from patients homozygous for F508del (F508del/F508del-HBE) or heterozygous for F508del with a different disease causing mutation on the other allele.
HBE cells grown on Costar® Snapwell™ cell culture inserts were mounted in an Ussing chamber (Physiologic Instruments, Inc., San Diego, Calif.), and the transepithelial resistance and short-circuit current in the presence of a basolateral to apical Cl^− gradient (ISC) were measured using a voltage-clamp system (Department of Bioengineering, University of Iowa, IA). Briefly, HBE cells were examined under voltage-clamp recording conditions (Vhold=0 mV) at 37° C. […]
A basolateral to apical membrane Cl^− concentration gradient was set up as follows. […] Chloride current was measured to assess the increase in functional CFTR in the cell membrane.

[4] = Solid form assessment of Compound I (thermodynamic stability); format: physicochemical; details: among solid forms of Compound I
Text: In some embodiments, Compound I is Form A. In some embodiments, crystalline Form A is characterized by an X-ray powder diffractogram having a signal at least one two-theta value chosen from 6.6±0.2, 7.6±0.2, 9.6±0.2, 12.4±0.2, 13.1±0.2, 15.2±0.2, 16.4±0.2, 18.2±0.2, and 18.6±0.2. In some embodiments, crystalline Form A is characterized by an X-ray powder diffractogram having a signal at at least three two-theta values chosen from 6.6±0.2, 7.6±0.2, 9.6±0.2, 12.4±0.2, 13.1±0.2, 15.2±0.2, 16.4±0.2, 18.2±0.2, and 18.6±0.2. In some embodiments, crystalline Form A is characterized by an X-ray powder diffractograph having a signal at at least three two-theta values chosen from 6.6±0.2, 9.6±0.2, 13.1±0.2, 15.2±0.2, 18.2±0.2, and 18.6±0.2. In some embodiments, crystalline Form A is characterized by an X-ray powder diffractograph having a signal at three two-theta values of 6.6±0.2, 13.1±0.2, 18.2±0.2. In some embodiments, crystalline Form A is characterized by an X-ray powder diffractograph having a signal at six two-theta values of 6.6±0.2, 9.6±0.2, 13.1±0.2, 15.2±0.2, 18.2±0.2, and 18.6±0.2. In some embodiments, Crystalline Form A is characterized by an X-ray powder diffractogram substantially similar to that in FIG. 4A. In some embodiments, Crystalline Form A is characterized by an X-ray powder diffractogram substantially similar to that in FIG. 4B.

[5] = Bioavailability of crystalline Form A of Compound I; format: in vivo

T1 sequence (P13569 with tags, fused parts or gaps DEL508-508): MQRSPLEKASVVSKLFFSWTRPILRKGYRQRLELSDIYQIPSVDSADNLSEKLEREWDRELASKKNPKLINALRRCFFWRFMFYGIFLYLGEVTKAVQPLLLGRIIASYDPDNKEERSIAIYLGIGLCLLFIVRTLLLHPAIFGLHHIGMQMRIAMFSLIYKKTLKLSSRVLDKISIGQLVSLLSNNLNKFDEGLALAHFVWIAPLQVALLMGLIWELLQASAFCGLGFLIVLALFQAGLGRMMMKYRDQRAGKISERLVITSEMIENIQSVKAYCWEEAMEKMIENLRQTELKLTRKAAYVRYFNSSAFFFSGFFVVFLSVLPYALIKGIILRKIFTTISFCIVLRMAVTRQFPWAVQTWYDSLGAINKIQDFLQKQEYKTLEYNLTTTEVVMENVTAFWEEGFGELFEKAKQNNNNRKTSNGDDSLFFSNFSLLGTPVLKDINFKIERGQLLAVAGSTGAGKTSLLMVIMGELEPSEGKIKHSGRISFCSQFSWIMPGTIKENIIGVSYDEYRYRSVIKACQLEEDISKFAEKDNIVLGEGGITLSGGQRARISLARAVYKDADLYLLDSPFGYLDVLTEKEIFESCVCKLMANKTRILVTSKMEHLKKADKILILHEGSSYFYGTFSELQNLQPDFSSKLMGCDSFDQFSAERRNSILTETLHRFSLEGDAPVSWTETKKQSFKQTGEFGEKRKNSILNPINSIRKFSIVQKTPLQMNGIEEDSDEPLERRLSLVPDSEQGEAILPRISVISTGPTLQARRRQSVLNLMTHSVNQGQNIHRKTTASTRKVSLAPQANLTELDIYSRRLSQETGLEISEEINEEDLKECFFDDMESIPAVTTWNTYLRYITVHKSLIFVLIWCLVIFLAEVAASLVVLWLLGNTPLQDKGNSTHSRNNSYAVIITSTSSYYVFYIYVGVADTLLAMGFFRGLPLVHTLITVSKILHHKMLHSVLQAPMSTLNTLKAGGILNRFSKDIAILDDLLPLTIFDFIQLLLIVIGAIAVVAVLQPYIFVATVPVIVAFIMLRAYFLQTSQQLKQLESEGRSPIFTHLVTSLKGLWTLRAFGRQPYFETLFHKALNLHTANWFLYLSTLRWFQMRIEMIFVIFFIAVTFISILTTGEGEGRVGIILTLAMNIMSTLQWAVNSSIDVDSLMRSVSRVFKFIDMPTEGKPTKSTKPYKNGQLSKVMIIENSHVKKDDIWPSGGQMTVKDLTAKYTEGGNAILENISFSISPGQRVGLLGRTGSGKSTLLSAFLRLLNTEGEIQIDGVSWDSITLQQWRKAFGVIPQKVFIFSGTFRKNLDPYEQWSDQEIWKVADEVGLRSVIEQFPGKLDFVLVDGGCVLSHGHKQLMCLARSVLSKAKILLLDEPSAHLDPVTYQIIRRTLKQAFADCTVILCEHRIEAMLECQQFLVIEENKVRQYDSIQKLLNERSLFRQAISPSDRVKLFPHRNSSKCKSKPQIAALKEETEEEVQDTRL
T2 sequence (P13569 with tags, fused parts or gaps DEL508-508): as above
F508del-CFTR protein, sequence (P13569 with tags, fused parts or gaps DEL508-508): as above

CFTR corrector activity (processing and trafficking of F508del-CFTR, enhanced chloride transport) (F508del-CFTR protein) | rat oral exposure (AUC) ([1]; PO 3 mg/kg) | oral bioavailability ([1]; PO 3 mg/kg vs IV 3.0 mg/kg) | Rat PO AUC/dose ([1]; single nominal oral dose 3 mg/kg, dose-normalised) [µg·h/mL/mg/kg] | bioavailability ([1]; rat, plasma, oral bioavailability, PO 3 mg/kg vs IV 3.0 mg/kg, read-out: Rat % F) [%] | clearance ([1]; rat, plasma, single nominal IV dose 3.0 mg/kg, read-out: Rat iv CL) [mL/min/kg] | AUC ([1]; rat, plasma, single nominal oral dose 3 mg/kg, AUC extrapolated to infinity) [ng·h/mL] | EC50 ([2]; 18-24 hours treatment) [nM] | Emax ([2]; relative to Compound II, read-out: % Efficacy relative to Compound II) [%] | EC50 [3] [nM] | HBE Max Eff (%) ([3]; % Efficacy) | thermodynamic stability of solid form [4] | bioavailability [5] | SMILES | EC50 (CFTR) [nM]
potent, efficacious, and selective | advantageous | advantageous | 9.4 ± 0.7 | 84 | 1.6 ± 0.4 | 23500 ± 1700 | < 3000 | ≥ 100 | < 2000 | +++ (“+++” means >100%) |  |  | Cc1nn(C)cc1S(=O)(=O)NC(=O)c1ccc(-n2ccc(OCC(C)(C)C(F)(F)F)n2)nc1N1C[C@@H](C)CC1(C)C [Compound I, N-(1,3-dimethylpyrazol-4-yl)sulfonyl-6-[3-(3,3,3-trifluoro-2,2-dimethyl-propoxy)pyrazol-1-yl]-2-[(4 S)-2,2,4-trimethylpyrrolidin-1-yl]pyridine-3-carboxamide] | 70
 |  |  |  |  |  |  |  |  |  |  | most thermodynamically stable form | good | Cc1nn(C)cc1S(=O)(=O)NC(=O)c1ccc(-n2ccc(OCC(C)(C)C(F)(F)F)n2)nc1N1C[C@@H](C)CC1(C)C [Crystalline Form A, N-(1,3-dimethylpyrazol-4-yl)sulfonyl-6-[3-(3,3,3-trifluoro-2,2-dimethyl-propoxy)pyrazol-1-yl]-2-[(4 S)-2,2,4-trimethylpyrrolidin-1-yl]pyridine-3-carboxamide] | 
